Source: patent US4432982A, “Polycyclic compounds substituted on the A-ring, pharmaceutical compositions containing them, and methods of treating psoriasis with them” (Richter Gedeon Vegyeszeti Gyar Rt., priority 1981, dated 1984)
Where a name gives a salt, the structure may show the parent alone.

System: phosphodiesterase isolated from cattle heart
Test: Phosphodiesterase inhibition, radioisotope method with 3H-c-AMP, enzyme isolated from cattle heart
Format: biochemical
Details: control without inhibitor = 100%, 20 minutes incubation
Description: The model experiments were performed by means of phosphodiesterase isolated from animal tissues (rat brain, cattle brain, cattle heart). The enzyme was isolated by the technique of J. Schroder and H. V. Richenberg [Biochem. Biophys. […] The measurement was first carried out without the inhibiting substance and then in the presence of one of the compounds of the general formula (I) as an inhibiting agent, after an incubation period of 20 minutes [N.S. Arch. […] A solution of papaverine used as reference material was added to the enzyme preparate in an analogous manner.
The activity of the solutions containing the compounds of formula (I) and papaverine was expressed in percents of the control (enzyme solution without any inhibitor substance, the activity thereof was taken 100%).

[1] = 1 × 10^-5 mole/lit. test compound, 10 µM
[2] = 5 × 10^-5 mole/lit. test compound, 50 µM
[3] = 5 × 10^-6 mole/lit. test compound, 5 µM

Row | effect of the test compound on enzyme activity in % of the control [1] [%] | effect of the test compound on enzyme activity in % of the control [2] [%] | effect of the test compound on enzyme activity in % of the control [3] [%] | SMILES
1 | 40.3 | 21.3 | 59.1 | CC[C@@]12C=C(COC(=O)c3cc(OC)c(OC)c(OC)c3)n3c4c(c5cc(OC)ccc53)CCN(CCC1)[C@H]42 [10-Methoxy-apovincaminol-3',4',5'-trimethoxybenzoate]
2 | 21.8 | 21.8 | 31.9 | CC[C@@]12C=C(COC(=O)c3cc(OC)c(OC)c(OC)c3)n3c4c(c5ccc(Br)cc53)CCN(CCC1)[C@H]42 [(-)-11-Bromo-apovincaminol-3',4',5'-trimethoxy-benzoate hydrochloride]
3 | 61.8 |  | 67.8 | CC[C@@]12C=C(COC(=O)c3cc(OC)c(OC)c(OC)c3)n3c4c(c5cc(Br)ccc53)CCN(CCC1)[C@H]42 [10-Bromo-apovincaminol-3',4',5'-trimethoxy-benzoate]

Row | SMILES | effect of the test compound on enzyme activity in % of the control [1] [%] | effect of the test compound on enzyme activity in % of the control [2] [%] | effect of the test compound on enzyme activity in % of the control [3] [%]
4 | COc1ccc(Cc2nccc3cc(OC)c(OC)cc23)cc1OC [Papaverine HCl, reference compound] | 82.7 | 43.7 | 91.3
